Key:
p53 in A2780 cells = experiment: p53 ELISA in A2780 cells (capacity to preserve p53); assay type: cell-based; conditions: lowest dose giving at least 140% of the p53 value of the control, 16 hours
Procedure: The capacity of the compounds to preserve p53 in A2780 cells was measured with the p53 enzyme linked immunosorbent assay. The p53 assay is a “sandwich” enzyme immunoassay employing two polyclonal antibodies. A polyclonal antibody, specific for the p53 protein, has been immobilized onto the surface of the plastic wells. Any p53 present in the sample to be assayed will bind to the capture antibody. The biotinylated detector polyclonal antibody also recognizes p53 protein, and will bind to any p53, which has been retained by the capture antibody. The detector antibody, in turn, is bond by horseradish peroxidase-conjugated streptavidin. The horseradish peroxidase catalyses the conversion of the chromogenic substrate o-phenylene diamine, the intensity of which is proportional to the amount of p53 protein bond to the plate. The colored reaction product is quantified using a spectrophotometer. Quantitation is achieved by the construction of a standard curve using known concentrations of purified recombinant HIS tagged p53 protein (see example C.1.).
A2780 cells (ATCC) were cultivated in RPMI 1640 supplemented with 10% fetal calf serum (FCS), 2 mM L-glutamine and gentamycin at 37° C. in a humidified incubator with 5% CO2.
A2780 cells were seeded at 20.000 cells per well in a 96 well plate, cultured for 24 hours and treated with compound for 16 hours at 37° C. in a humidified incubator. After incubation, the cells were washed once with phosphate-buffered saline and 30 μl, per well, low salt RIPA buffer (20 mM tris, pH7.0, 0.5 mM EDTA, 1% Nonidet P40, 0.5% DOC, 0.05% SDS, 1 mM PMSF, 1 μg/ml aprotinin and 0.5 μ/ml leupeptin) was added. Plates were placed on ice for 30 minutes to complete the lysis. p53 protein was detected in de lysates by using the sandwich ELISA, described below.
High binding polystyrene EIA/RIA 96 well plates (Costar 9018) were coated with the capture antibody pAb1801 (Abcam ab28-100) at a concentration of 1 μg/ml in coating buffer (0.1 M NaHCO3 pH8.2), 50 μl per well. The antibody was allowed to adhere overnight at 4° C. Coated plates were washed once with phosphate-buffered saline (PBS)/0.05% Tween 20 and 300 μl of blocking buffer (PBS, 1% bovine serum albumins (BSA)) was added, for an incubation period of 2 hours at room temperature. Dilutions of purified recombinant HIS tagged p53 protein, ranging from 3-200 ng/ml, were made in blocking buffer and used as standards.
Plates were washed twice with PBS/0.05% Tween 20 and blocking buffer or standards were added at 80 μl/well. To the standards, 20 μl of lysis buffer was added. The samples were added to the other wells at 20 μl lysate/well. After an overnight incubation at 4° C., plates were washed twice with PBS/0.05% Tween 20. Aliquots of 100 μl secondary polyclonal antibody p53(FL-393) (Tebubio, sc-6243) at a concentration of 1 μg/ml in blocking buffer were added to each well and allowed to adhere for 2 hours at room temperature. Plates were washed three times with PBS/0.05% Tween 20. Detection antibody anti-rabbit HRP (sc-2004, Tebubio) at 0.04 μg/ml in PBS/1% BSA was added and incubated for 1 hour at room temperature. Plates were washed three times with PBS/0.05% Tween 20 and 100 μl of substrate buffer was added (substrate buffer was prepared shortly before use by adding 1 tablet of 10 mg o-phenylene diamine (OPD) from Sigma and 125 μl 3% H2O2 to 25 ml OPD buffer: 35 mM citric acid, 66 mM Na2HPO4, pH5.6). After 5 to 10 minutes, colour reaction was stopped by adding 50 μl stop buffer (1 M H2SO4) per well. The absorbance at dual wavelengths of 490/655 nm was measured using a Biorad micro plate reader and the results were then analyzed.
For each experiment, controls (containing no drug) and a blank incubation (containing no cells or drugs) were run in parallel. The blank value was subtracted from all control and sample values. For each sample, the value of p53 (in absorbance units) was expressed as the percentage of the value for p53 present in the control. […]

p53 in U87MG cells = experiment: U87MG p53-elisa as described in EP1809622; assay type: cell-based; conditions: lowest dose giving at least 140% of the p53 value of the control
Male NMRI mice = experiment: Ro-4-1284 antagonism in mice (drug induced neurological effects); assay type: in vivo; conditions: Ro-4-1284 antagonism in mice
Procedure: The test is a modification of a procedure described by Colpaert et al. (1975).^3 Male NMRI mice (22±3 g) were housed in macrolon observation cages (L×W×H: 11×12×17 cm; n=3 per cage). At the start of the experiments immediately before test compound administration, the initial body temperature of the mice was measured with a precision of 0.1° C. by inserting the thermo-sensitive probe (1.0 mm diameter) of an electric thermometer (Comark) to a constant depth of 3 cm into the esophagus until a stable reading was obtained. The right eye pupil diameter was measured with a graduated microscope and expressed in 1/24 mm units. Fifteen min after test compound administration, the mice were challenged with Ro-4-1284 (10 mg/kg, s.c.). Ro-4-1284 is a reserpine-like vesicular monoamine transport (VMAT-2) inhibitor, which rapidly depletes secretory vesicles.^3,4 Fifteen, 30 and 60 min after challenge, the mice were scored for palpebral opening (0, 1, 2, 3, 4, 5) and locomotor activity (−1, 0, 1, 2, 3). At the 60-min interval, immediately after the scoring of overt behavior, the right eye pupil diameter and the esophageal temperature were measured again. Abnormal phenomena such as intensive sniffing, chewing, rearing, hyperemia, piloerection, salivation, tremors, convulsions and death were noted (the latter phenomena were also noted when occurring before Ro-4-1284 administration). Criteria for drug-induced effects: reversal of ptosis: palpebral opening score >1 at 15, 30 or 60 min (2.7, 0.5 and 0% false positive controls, respectively; n>350); induction of prostration: score −1 for locomotion at 15, 30 or 60 min (never observed in controls); reversal of hypomotility: score >0 for locomotion at 15, 30 and 60 min (2.2, 0.8 and 0% false positive controls, respectively); reversal of miosis: pupil diameter >5 units at 60 min (0.8% false positives); potentiation of hypothermia: temperature decrease (over the 1-h time interval)>9.0° C. (1.4% false positives); reversal of hypothermia: temperature decrease <3.0° C. (1.8% false positives).
According to the standard procedure, R0-4-1284 is injected 15 min following subcutaneous or oral administration and observations start 15 min later. Doses are initially given to 3 animals. When at least 2 out of the 3 animals show activity for at least one of the observations, the compound is considered active.

SMILES | A2780 p53-elisa LAD (p53 in A2780 cells) | U87MG p53-elisa LAD (p53 in U87MG cells) | drug induced neurological side effects (Male NMRI mice)
Cc1cc(Nc2ccncc2)ccc1NCCc1c[nH]c2ccccc12 | 3.00E-06 | 1.00E-05 | yes
Cc1cc(Nc2ccnc3c2CCC3O)ccc1NCCc1c[nH]c2c(C)cccc12 (stereo not shown) [compound 3] | 1.00E-07 | – | –
c1ccc2c(CCNc3ccc(Nc4ccncc4)cc3)c[nH]c2c1 | 1.00E-06 | 3.00E-06 | yes
OC1CCc2c(Nc3ccc(NCCc4c[nH]c5ccccc45)cc3)ccnc21 (stereo not shown) [drawing 34] | 3.00E-07 | 1.00E-07 | yes

Reference: patent US8853406B2, “Substituted phenylenediamines as inhibitors of the interaction between MDM2 and P53” (Janssen Pharmaceutica NV, priority 2007, dated 2014)
